From patent US11046672B2, “Indolinones compounds and their use in the treatment of fibrotic diseases” (RESPIVERT LIMITED, priority 2015, dated 2021)
Like-named read-outs stand apart in the source and are kept apart here.

Legend:
[1] = target: VEGFR2 (Homo sapiens (Human), UniProt P35968); test: VEGF165 induced phosphorylation of VEGFR2 in endothelial cells (TeloHAEC, HTRF); assay type: cell-based; conditions: HAEC cells; n = 1 unless otherwise indicated
[2] = test system: MRC5 cells; test: Cell viability assay in MRC5 cells (MTT)
[3] = PAMPA permeability assay; assay type: in vitro ADME; conditions: PAMPA; for recovery at 5 hr, 10 μM: pH 7, PAMPA, donor and acceptor compartments; for Papp at 5 h, 10 μM: pH 7, pH 7, 10 μM
[4] = target: T1, PDGFRβ (Homo sapiens (Human), UniProt P09619); test: PDGF-BB induced phosphorylation of PDGFRβ in fibroblasts (MRC5 cells, HTRF); assay type: cell-based; conditions: MRC5 cells; n = 1 unless otherwise indicated; read-out: PDGFBB-induced PDGFRβ phosphorylation in MRC5 cells (IC50)
[5] = target: T1, PDGFRβ; test: Duration of action (washout) against PDGF-BB induced phosphorylation of PDGFRβ in human fetal lung fibroblast cells; assay type: cell-based; conditions: MRC-5 cells
[6] = Pharmacokinetic measurements in rats (intravenous and intra-tracheal dosing); assay type: in vivo; conditions: rat; for concentration at 0.1 h / concentration at 1.5 h / concentration at 24 h: lung, read-out: lung concentration (nM) at time (h); for Kp at 0.1 h / Kp at 1.5 h / Kp at 24 h: lung/plasma
[7] = Pharmacokinetic measurements in mice (intravenous and intra-nasal dosing); assay type: in vivo; conditions: mouse; for concentration at 6 h / concentration at 0.1 h / concentration at 1.5 h / concentration at 24 h / Kp at 6 h / Kp at 0.1 h / Kp at 1.5 h: male, C57BL/6J; for concentration at 6 h / concentration at 0.1 h / concentration at 1.5 h / concentration at 24 h: lung, read-out: lung concentration (nM) at time (h); for concentration at 6 h / concentration at 0.1 h / concentration at 1.5 h / concentration at 24 h / BAV (%): mean; for Kp at 6 h / Kp at 0.1 h / Kp at 1.5 h: lung/plasma
[8] = target: T1, PDGFRβ; conditions: read-out: Ki PDGFRβ; mean, n = 2 unless otherwise indicated

T1 sequence (P09619 33-1106): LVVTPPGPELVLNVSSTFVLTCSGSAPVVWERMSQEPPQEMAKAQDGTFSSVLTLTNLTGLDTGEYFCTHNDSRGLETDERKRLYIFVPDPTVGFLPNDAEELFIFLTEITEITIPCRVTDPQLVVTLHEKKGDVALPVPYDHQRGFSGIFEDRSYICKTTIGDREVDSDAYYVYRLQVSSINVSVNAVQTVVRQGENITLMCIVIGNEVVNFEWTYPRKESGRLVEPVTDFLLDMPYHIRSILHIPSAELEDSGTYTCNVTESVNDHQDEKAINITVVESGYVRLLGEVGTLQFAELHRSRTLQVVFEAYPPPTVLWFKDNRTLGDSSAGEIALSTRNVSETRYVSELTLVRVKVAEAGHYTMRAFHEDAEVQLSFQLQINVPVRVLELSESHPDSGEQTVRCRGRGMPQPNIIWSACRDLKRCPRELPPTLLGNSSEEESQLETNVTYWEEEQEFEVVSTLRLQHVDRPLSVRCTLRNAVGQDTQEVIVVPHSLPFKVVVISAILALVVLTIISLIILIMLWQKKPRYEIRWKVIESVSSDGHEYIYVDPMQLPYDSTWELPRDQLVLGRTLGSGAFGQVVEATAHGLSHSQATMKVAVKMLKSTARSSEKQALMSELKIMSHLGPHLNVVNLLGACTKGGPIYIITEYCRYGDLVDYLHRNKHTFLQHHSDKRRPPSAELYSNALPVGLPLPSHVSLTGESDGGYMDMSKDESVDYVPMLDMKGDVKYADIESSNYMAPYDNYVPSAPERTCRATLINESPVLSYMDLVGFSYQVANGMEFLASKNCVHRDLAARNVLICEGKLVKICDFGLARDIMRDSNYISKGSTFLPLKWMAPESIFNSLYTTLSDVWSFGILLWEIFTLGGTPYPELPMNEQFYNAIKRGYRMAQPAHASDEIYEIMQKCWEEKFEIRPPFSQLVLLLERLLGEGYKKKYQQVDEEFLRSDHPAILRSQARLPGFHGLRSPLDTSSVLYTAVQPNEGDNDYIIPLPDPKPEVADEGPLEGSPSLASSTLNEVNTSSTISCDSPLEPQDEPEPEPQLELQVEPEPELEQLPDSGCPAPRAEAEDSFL
Chain of VEGFR2 (P35968 20-1356): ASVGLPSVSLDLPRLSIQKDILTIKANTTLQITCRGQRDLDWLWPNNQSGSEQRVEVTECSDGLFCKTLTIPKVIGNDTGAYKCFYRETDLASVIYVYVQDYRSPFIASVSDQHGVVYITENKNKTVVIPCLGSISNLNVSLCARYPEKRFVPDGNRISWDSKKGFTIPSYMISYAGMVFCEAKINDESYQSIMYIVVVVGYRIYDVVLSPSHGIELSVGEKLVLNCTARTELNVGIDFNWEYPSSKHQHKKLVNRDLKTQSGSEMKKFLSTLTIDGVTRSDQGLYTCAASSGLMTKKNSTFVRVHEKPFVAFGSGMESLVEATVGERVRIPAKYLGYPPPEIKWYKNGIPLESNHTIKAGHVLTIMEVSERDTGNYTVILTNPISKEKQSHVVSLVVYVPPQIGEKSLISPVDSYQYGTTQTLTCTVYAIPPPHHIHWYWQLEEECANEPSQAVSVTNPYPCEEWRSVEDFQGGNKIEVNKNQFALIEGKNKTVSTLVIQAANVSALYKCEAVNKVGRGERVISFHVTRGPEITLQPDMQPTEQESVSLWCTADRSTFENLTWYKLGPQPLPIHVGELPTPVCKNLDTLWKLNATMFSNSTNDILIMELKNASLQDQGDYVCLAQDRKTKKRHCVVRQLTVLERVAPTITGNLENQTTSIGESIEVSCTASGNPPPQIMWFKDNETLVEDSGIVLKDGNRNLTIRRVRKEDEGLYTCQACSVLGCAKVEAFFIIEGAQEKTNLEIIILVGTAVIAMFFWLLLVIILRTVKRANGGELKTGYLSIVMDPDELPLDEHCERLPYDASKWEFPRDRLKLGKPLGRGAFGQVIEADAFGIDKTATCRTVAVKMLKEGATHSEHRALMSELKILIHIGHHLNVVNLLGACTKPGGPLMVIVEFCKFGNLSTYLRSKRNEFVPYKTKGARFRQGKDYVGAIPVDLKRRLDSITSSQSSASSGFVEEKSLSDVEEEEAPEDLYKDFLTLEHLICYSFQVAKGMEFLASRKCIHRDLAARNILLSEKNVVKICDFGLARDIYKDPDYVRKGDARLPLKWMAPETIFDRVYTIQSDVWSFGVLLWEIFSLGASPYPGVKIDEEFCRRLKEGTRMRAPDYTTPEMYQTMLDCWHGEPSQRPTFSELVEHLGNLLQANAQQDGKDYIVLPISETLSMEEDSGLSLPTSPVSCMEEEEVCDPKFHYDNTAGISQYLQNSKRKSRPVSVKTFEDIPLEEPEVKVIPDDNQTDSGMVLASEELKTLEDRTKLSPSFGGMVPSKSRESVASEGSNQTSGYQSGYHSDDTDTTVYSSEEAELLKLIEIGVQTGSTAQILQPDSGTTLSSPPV

COC(=O)c1ccc2c(c1)NC(=O)/C2=C(\Nc1ccc(C(=O)N(C)OC)cc1)c1ccccc1 [Example 1, (Z)-Methyl 3-(((4-(methoxy(methyl)carbamoyl)phenyl)amino)(phenyl)methylene)-2-oxoindoline-6-carboxylate]
IC50 [1]: 32.2 nM | Cell viability at 100 nM (%) [2]: 116.6% | Cell viability at 300 nM (%) [2]: 97 (n = 2) % | Cell viability at 1000 nM (%) [2]: 87 (n = 2) %

COC(=O)c1cc2c(cc1C)/C(=C(/Nc1ccc(C(=O)NOCCCN3CCN(C)CC3)cc1)c1ccccc1)C(=O)N2 [Example 64]
IC50 [1]: 32.2 nM | recovery at 5 hr, 10 μM [3]: 59.4% | Papp at 5 h, 10 μM [3]: 0.0679 ×10⁻⁶ cm/s | Cell viability at 100 nM (%) [2]: 86.5% | Cell viability at 300 nM (%) [2]: 88.6% | Cell viability at 1000 nM (%) [2]: 73.7%

COC(=O)c1cc2c(cc1C)/C(=C(/Nc1ccc(C(=O)NOCCN3CCN(C)CC3)cc1)c1ccccc1)C(=O)N2 [Example 6, (Z)-Methyl 5-methyl-3-(((4-((2-(4-methylpiperazin-1-yl)ethoxy)carbamoyl)phenyl)amino)(phenyl)methylene)-2-oxoindoline-6-carboxylate]
IC50 [4]: 6.95 nM | % phos: percentage phosphorylation after wash-out relative to maximal phosphorylation (100%) ([5]; after wash-out, rhuPDGF-BB, experiments in Groups 1-4): 31.6% | Duration of action as inhibitors of PDGFRβ compared with nintedanib ([5]; wash-out): longer duration of action | recovery at 5 hr, 10 μM [3]: 42% | Papp at 5 h, 10 μM [3]: 0.00649 ×10⁻⁶ cm/s | concentration at 0.1 h ([6]; male, CD, iv, i.v. dosing, 0.1 h): 2990 nM | concentration at 1.5 h ([6]; male, CD, iv, i.v. dosing, 1.5 h): 1880 nM | concentration at 24 h ([6]; male, CD, iv, i.v. dosing, 24 h): 173 nM | concentration at 0.1 h ([6]; male, CD, other: intra-tracheal, i.t. dosing, 0.1 h): 30400 nM | concentration at 1.5 h ([6]; male, CD, other: intra-tracheal, i.t. dosing, 1.5 h): 11900 nM | concentration at 24 h ([6]; male, CD, other: intra-tracheal, i.t. dosing, 24 h): 4720 nM | Kp at 0.1 h ([6]; male, CD, iv, i.v. dosing, 0.1 h, read-out: lung/plasma ratio at time(h)): 103 | Kp at 1.5 h ([6]; male, CD, iv, i.v. dosing, 1.5 h, read-out: lung/plasma ratio at time(h)): 315 | Kp at 24 h ([6]; male, CD, iv, i.v. dosing, 24 h, read-out: lung/plasma ratio at time(h)): 198 | Kp at 0.1 h ([6]; male, CD, other: intra-tracheal, i.t. dosing, 0.1 h, read-out: lung/plasma conc ratio at time(h)): 288 | Kp at 1.5 h ([6]; male, CD, other: intra-tracheal, i.t. dosing, 1.5 h, read-out: lung/plasma conc ratio at time(h)): 2890 | Kp at 24 h ([6]; male, CD, other: intra-tracheal, i.t. dosing, 24 h, read-out: lung/plasma conc ratio at time(h)): 3280 | MRT ([6]; male, CD, plasma, iv, i.v. dosing): 7.9 h | clearance ([6]; male, CD, plasma, iv, i.v. dosing (i.v. dose 0.1-0.5 per compound)): 132 mL/min/kg | Vd ([6]; male, CD, plasma, iv, i.v. dosing, read-out: Vss): 63 L/kg | half-life ([6]; male, CD, plasma, iv, i.v. dosing, read-out: t½ (converted)): 8.1 h | Lung conc i.t./i.v. Ratio at time (h) ([6]; 0.1 h): 10.2 | Lung conc i.t./i.v. Ratio at time (h) ([6]; 1.5 h): 6.3 | Lung conc i.t./i.v. Ratio at time (h) ([6]; 24 h): 27.3 | i.t. BAV (%) ([6]; i.t. dosing (i.t. dose 0.1-0.5 per compound)): 115% | BAL % administered dose at time (h) ([6]; i.t. dosing, 0.1 h): 6% | BAL % administered dose at time (h) ([6]; i.t. dosing, 1.5 h): 3% | BAL % administered dose at time (h) ([6]; i.t. dosing, 24 h): 0.1% | BAL % administered dose at time (h) ([6]; i.v. dosing, 0.1 h): 0.06% | BAL % administered dose at time (h) ([6]; i.v. dosing, 1.5 h): 0.03% | BAL % administered dose at time (h) ([6]; i.v. dosing, 24 h): BQL | Oral BAV (%) ([6]; oral dose 3 mg/kg): <1% | concentration at 6 h ([7]; iv, 0.2 mg/kg, i.v. dosing, 6 h): 46 nM | concentration at 0.1 h ([7]; iv, i.v. dosing, 0.1 h): 580 nM | concentration at 1.5 h ([7]; iv, i.v. dosing, 1.5 h): 168 nM | concentration at 24 h ([7]; iv, i.v. dosing, 24 h): 13 nM | concentration at 0.1 h ([7]; other: intra-nasal, i.n. dosing, 0.1 h): 1490 nM | concentration at 1.5 h ([7]; other: intra-nasal, i.n. dosing, 1.5 h): 986 nM | concentration at 6 h ([7]; other: intra-nasal, i.n. dosing, 6 h): 258 nM | concentration at 24 h ([7]; other: intra-nasal, i.n. dosing, 24 h): 84 nM | Kp at 6 h ([7]; iv, 0.2 mg/kg, i.v. dosing, 6 h, read-out: lung/plasma ratio at time(h)): 65 | Kp at 0.1 h ([7]; iv, i.v. dosing, 0.1 h, read-out: lung/plasma ratio at time(h)): 11 | Kp at 1.5 h ([7]; iv, i.v. dosing, 1.5 h, read-out: lung/plasma ratio at time(h)): 40 | Kp at 0.1 h ([7]; other: intra-nasal, i.n. dosing, 0.1 h, read-out: lung/plasma conc ratio at time(h)): 79 | Kp at 1.5 h ([7]; other: intra-nasal, i.n. dosing, 1.5 h, read-out: lung/plasma conc ratio at time(h)): 398 | Kp at 6 h ([7]; other: intra-nasal, i.n. dosing, 6 h, read-out: lung/plasma conc ratio at time(h)): 607 | Lung conc i.n./i.v. Ratio at time (h) ([7]; 0.1 h): 2.6 | Lung conc i.n./i.v. Ratio at time (h) ([7]; 1.5 h): 5.9 | Lung conc i.n./i.v. Ratio at time (h) ([7]; 6 h): 5.6 | Lung conc i.n./i.v. Ratio at time (h) ([7]; 24 h): 6.5 | BAV (%) ([7]; i.n. dosing (i.n. dose 1 nintedanib, 0.2 examples)): ~50% | BAL % administered dose at time (h) ([7]; i.n. dosing, 0.1 h): 1% | BAL % administered dose at time (h) ([7]; i.n. dosing, 1.5 h): 0.3% | BAL % administered dose at time (h) ([7]; i.n. dosing, 6 h): 0.1% | BAL % administered dose at time (h) ([7]; i.n. dosing, 24 h): 0.04% | BAL % administered dose at time (h) ([7]; i.v. dosing, 0.1 h): 0.1% | BAL % administered dose at time (h) ([7]; i.v. dosing, 1.5 h): 0.01% | BAV (%) ([7]; oral dosing (oral dose 60 mg/kg nintedanib, 10 mg/kg examples)): <5% | Ki [8]: 8.31 nM | Cell viability at 100 nM (%) [2]: 98.1% | Cell viability at 300 nM (%) [2]: 88.5% | Cell viability at 1000 nM (%) [2]: 77%
